Source: the NIST ThermoML archive (doi:10.1007/s10765-005-5566-6)

Assay: xn = mol fraction of the nth substance listed
Details: Gas, Hot wire method

C [methane] + O=C=O
Details	thermal conductivity [W/m/K]
300 K, 724 kPa, x1 = 0.2493	0.02096
300 K, 727 kPa, x1 = 0.4994	0.02533
300 K, 730 kPa, x1 = 0.7496	0.03005
300 K, 1240 kPa, x1 = 0.7496	0.03027
300 K, 1241 kPa, x1 = 0.4994	0.02556
300 K, 1288 kPa, x1 = 0.2493	0.02125
300 K, 1748 kPa, x1 = 0.4994	0.02584
300 K, 1770 kPa, x1 = 0.7496	0.03051
300 K, 1835 kPa, x1 = 0.2493	0.02161
300 K, 2212 kPa, x1 = 0.4994	0.02613
300 K, 2245 kPa, x1 = 0.7496	0.03082
300 K, 2335 kPa, x1 = 0.2493	0.02197
300 K, 2700 kPa, x1 = 0.4994	0.02637
300 K, 2740 kPa, x1 = 0.7496	0.03109
300 K, 2820 kPa, x1 = 0.2493	0.02245
300 K, 3118 kPa, x1 = 0.4994	0.02681
300 K, 3220 kPa, x1 = 0.7496	0.03153
300 K, 3275 kPa, x1 = 0.2493	0.02287
300 K, 3550 kPa, x1 = 0.4994	0.02726
300 K, 3680 kPa, x1 = 0.7496	0.03188
300 K, 3730 kPa, x1 = 0.2493	0.02338
300 K, 4160 kPa, x1 = 0.2493	0.02399
300 K, 4160 kPa, x1 = 0.7496	0.03236
300 K, 4550 kPa, x1 = 0.2493	0.02452
300 K, 4560 kPa, x1 = 0.7496	0.03271
300 K, 4660 kPa, x1 = 0.4994	0.02839
300 K, 4920 kPa, x1 = 0.2493	0.0252
300 K, 5000 kPa, x1 = 0.7496	0.03324
300 K, 5670 kPa, x1 = 0.4994	0.02959
300 K, 6570 kPa, x1 = 0.4994	0.03101
325 K, 793 kPa, x1 = 0.2493	0.0234
325 K, 797 kPa, x1 = 0.7496	0.03345
325 K, 800 kPa, x1 = 0.4994	0.02831
325 K, 1350 kPa, x1 = 0.4994	0.02846
325 K, 1358 kPa, x1 = 0.7496	0.03366
325 K, 1420 kPa, x1 = 0.2493	0.02367
325 K, 1896 kPa, x1 = 0.4994	0.02871
325 K, 1920 kPa, x1 = 0.7496	0.0339
325 K, 2020 kPa, x1 = 0.2493	0.02398
325 K, 2434 kPa, x1 = 0.4994	0.02901
325 K, 2465 kPa, x1 = 0.7496	0.0342
325 K, 2600 kPa, x1 = 0.2493	0.02439
325 K, 2970 kPa, x1 = 0.4994	0.02933
325 K, 3020 kPa, x1 = 0.7496	0.0345
325 K, 3160 kPa, x1 = 0.2493	0.02478
325 K, 3440 kPa, x1 = 0.4994	0.02963
325 K, 3520 kPa, x1 = 0.7496	0.03477
325 K, 3685 kPa, x1 = 0.2493	0.02519
325 K, 3920 kPa, x1 = 0.4994	0.02999
325 K, 4040 kPa, x1 = 0.7496	0.03529
325 K, 4210 kPa, x1 = 0.2493	0.02561
325 K, 4555 kPa, x1 = 0.7496	0.03559
325 K, 4690 kPa, x1 = 0.2493	0.02615
325 K, 5040 kPa, x1 = 0.7496	0.03603
325 K, 5170 kPa, x1 = 0.2493	0.02675
325 K, 5200 kPa, x1 = 0.4994	0.03111
325 K, 5560 kPa, x1 = 0.7496	0.03638
325 K, 5625 kPa, x1 = 0.2493	0.02733
325 K, 6380 kPa, x1 = 0.4994	0.03222
325 K, 7500 kPa, x1 = 0.4994	0.03379
350 K, 860 kPa, x1 = 0.2493	0.026
350 K, 862 kPa, x1 = 0.7496	0.03707
350 K, 865 kPa, x1 = 0.4994	0.03135
350 K, 1310 kPa, x1 = 0.2493	0.02615
350 K, 1464 kPa, x1 = 0.4994	0.03154
350 K, 1605 kPa, x1 = 0.7496	0.03738
350 K, 1750 kPa, x1 = 0.2493	0.02631
350 K, 2054 kPa, x1 = 0.4994	0.03177
350 K, 2180 kPa, x1 = 0.2493	0.02656
350 K, 2340 kPa, x1 = 0.7496	0.03766
350 K, 2610 kPa, x1 = 0.2493	0.02669
350 K, 2660 kPa, x1 = 0.4994	0.03206
350 K, 3020 kPa, x1 = 0.2493	0.02694
350 K, 3035 kPa, x1 = 0.7496	0.03796
350 K, 3190 kPa, x1 = 0.4994	0.03224
350 K, 3440 kPa, x1 = 0.2493	0.02718
350 K, 3740 kPa, x1 = 0.7496	0.03813
350 K, 3760 kPa, x1 = 0.4994	0.03258
350 K, 3840 kPa, x1 = 0.2493	0.02747
350 K, 4220 kPa, x1 = 0.2493	0.02766
350 K, 4324 kPa, x1 = 0.4994	0.03282
350 K, 4410 kPa, x1 = 0.7496	0.03855
350 K, 4600 kPa, x1 = 0.2493	0.02799
350 K, 5140 kPa, x1 = 0.7496	0.039
350 K, 5145 kPa, x1 = 0.4994	0.03347
350 K, 5860 kPa, x1 = 0.7496	0.03958
350 K, 5920 kPa, x1 = 0.4994	0.03401
350 K, 6410 kPa, x1 = 0.7496	0.03989
350 K, 6670 kPa, x1 = 0.4994	0.03477
350 K, 7080 kPa, x1 = 0.7496	0.04053
375 K, 919 kPa, x1 = 0.2493	0.02872
375 K, 919 kPa, x1 = 0.4994	0.03475
375 K, 930 kPa, x1 = 0.7496	0.04098
375 K, 1460 kPa, x1 = 0.2493	0.02883
375 K, 1528 kPa, x1 = 0.7496	0.04104
375 K, 1578 kPa, x1 = 0.4994	0.0348
375 K, 1986 kPa, x1 = 0.2493	0.02895
375 K, 2135 kPa, x1 = 0.7496	0.04117
375 K, 2220 kPa, x1 = 0.4994	0.03492
375 K, 2510 kPa, x1 = 0.2493	0.02913
375 K, 2740 kPa, x1 = 0.7496	0.04129
375 K, 2840 kPa, x1 = 0.4994	0.0352
375 K, 3015 kPa, x1 = 0.2493	0.02945
375 K, 3310 kPa, x1 = 0.7496	0.04145
375 K, 3480 kPa, x1 = 0.4994	0.03545
375 K, 3510 kPa, x1 = 0.2493	0.0297
375 K, 3915 kPa, x1 = 0.7496	0.04181
375 K, 4005 kPa, x1 = 0.2493	0.02993
375 K, 4100 kPa, x1 = 0.4994	0.03561
375 K, 4490 kPa, x1 = 0.7496	0.04204
375 K, 4500 kPa, x1 = 0.2493	0.0302
375 K, 4715 kPa, x1 = 0.4994	0.03598
375 K, 4975 kPa, x1 = 0.2493	0.03051
375 K, 5440 kPa, x1 = 0.2493	0.03075
375 K, 5855 kPa, x1 = 0.4994	0.03682
375 K, 6910 kPa, x1 = 0.7496	0.04355
375 K, 6930 kPa, x1 = 0.4994	0.03739
375 K, 8000 kPa, x1 = 0.4994	0.03823
375 K, 9330 kPa, x1 = 0.7496	0.04538
375 K, 11600 kPa, x1 = 0.7496	0.04722
400 K, 983 kPa, x1 = 0.2493	0.03152
400 K, 986 kPa, x1 = 0.4994	0.03807
400 K, 993 kPa, x1 = 0.7496	0.04503
400 K, 1410 kPa, x1 = 0.2493	0.0316
400 K, 1690 kPa, x1 = 0.4994	0.03812
400 K, 1700 kPa, x1 = 0.7496	0.04501
400 K, 1820 kPa, x1 = 0.2493	0.03172
400 K, 2230 kPa, x1 = 0.2493	0.03183
400 K, 2378 kPa, x1 = 0.4994	0.03826
400 K, 2393 kPa, x1 = 0.7496	0.04519
400 K, 2635 kPa, x1 = 0.2493	0.03187
400 K, 3040 kPa, x1 = 0.2493	0.03201
400 K, 3061 kPa, x1 = 0.4994	0.03844
400 K, 3115 kPa, x1 = 0.7496	0.04526
400 K, 3435 kPa, x1 = 0.2493	0.03228
400 K, 3740 kPa, x1 = 0.4994	0.03866
400 K, 3770 kPa, x1 = 0.7496	0.04535
400 K, 3850 kPa, x1 = 0.2493	0.03241
400 K, 4240 kPa, x1 = 0.2493	0.03258
400 K, 4390 kPa, x1 = 0.4994	0.03887
400 K, 4460 kPa, x1 = 0.7496	0.04578
400 K, 4615 kPa, x1 = 0.2493	0.03271
400 K, 5060 kPa, x1 = 0.4994	0.03918
400 K, 5140 kPa, x1 = 0.7496	0.04598
400 K, 5667 kPa, x1 = 0.4994	0.03961
400 K, 6180 kPa, x1 = 0.4994	0.0398
400 K, 6670 kPa, x1 = 0.7496	0.04688
400 K, 6710 kPa, x1 = 0.4994	0.04014
400 K, 8110 kPa, x1 = 0.7496	0.04756
400 K, 9545 kPa, x1 = 0.7496	0.04861
425 K, 1048 kPa, x1 = 0.2493	0.03418
425 K, 1050 kPa, x1 = 0.4994	0.04164
425 K, 1050 kPa, x1 = 0.7496	0.04889
425 K, 1530 kPa, x1 = 0.2493	0.03411
425 K, 1799 kPa, x1 = 0.4994	0.04146
425 K, 1810 kPa, x1 = 0.7496	0.04908
425 K, 1938 kPa, x1 = 0.2493	0.03436
425 K, 2390 kPa, x1 = 0.2493	0.03434
425 K, 2554 kPa, x1 = 0.4994	0.04156
425 K, 2558 kPa, x1 = 0.7496	0.04898
425 K, 2810 kPa, x1 = 0.2493	0.03448
425 K, 3260 kPa, x1 = 0.2493	0.03452
425 K, 3260 kPa, x1 = 0.4994	0.04176
425 K, 3300 kPa, x1 = 0.7496	0.04919
425 K, 3690 kPa, x1 = 0.2493	0.03472
425 K, 4000 kPa, x1 = 0.4994	0.04192
425 K, 4050 kPa, x1 = 0.7496	0.04919
425 K, 4120 kPa, x1 = 0.2493	0.0349
425 K, 4540 kPa, x1 = 0.2493	0.03506
425 K, 4730 kPa, x1 = 0.4994	0.04207
425 K, 4800 kPa, x1 = 0.7496	0.0498
425 K, 4960 kPa, x1 = 0.2493	0.0353
425 K, 5460 kPa, x1 = 0.4994	0.04245
425 K, 5520 kPa, x1 = 0.7496	0.05001
425 K, 6410 kPa, x1 = 0.4994	0.04284
425 K, 7380 kPa, x1 = 0.4994	0.04335
425 K, 7670 kPa, x1 = 0.7496	0.05089
425 K, 8310 kPa, x1 = 0.4994	0.04385
425 K, 9820 kPa, x1 = 0.7496	0.05188
425 K, 11970 kPa, x1 = 0.7496	0.05348
